The source made the active and inactive calls. The rule behind the calls is not given here.
Assays:
DU-145 [1] = experiment: Cell cycle arrest in human DU145 cells assessed as accumulation at G2/M phase at 200 nM after 24 hrs by propidium iodide staining based flow cytometry (reference value: 25.88%); format: functional
DU-145 [2] = experiment: Cell cycle arrest in human DU145 cells assessed as accumulation at G2/M phase after 24 hrs by propidium iodide staining based flow cytometry; format: functional
DU-145 [3] = experiment: Induction of mitochondrial membrane potential loss in human DU145 cells assessed as intact membrane cell population at 200 nM after 24 hrs by JC-1 staining based flow cytometry (reference value: 77.24%); format: functional
DU-145 [4] = experiment: Induction of apoptosis in human DU145 cells assessed as early apoptotic cells at 400 nM after 24 hrs by Annexin V-FITC/propidium iodide staining based flow cytometry (reference value: 5.92%); format: functional
DU-145 [5] = experiment: Antimigratory activity against human DU145 cells assessed as inhibition of migration to scratch area at 100 nM after 24 hrs by phase contrast microscopic method relative to control; format: functional; settings: DU-145, 24 h
DU-145 [6] = experiment: Cell cycle arrest in human DU145 cells assessed as accumulation at G0/G1 phase at 200 nM after 24 hrs by propidium iodide staining based flow cytometry (reference value: 63.77%); format: functional
DU-145 [7] = experiment: Induction of mitochondrial membrane potential loss in human DU145 cells assessed as depolarized cell population at 400 nM after 24 hrs by JC-1 staining based flow cytometry (reference value: 22.28%); format: functional
DU-145 [8] = experiment: Induction of apoptosis in human DU145 cells assessed as late apoptotic cells at 200 nM after 24 hrs by Annexin V-FITC/propidium iodide staining based flow cytometry (reference value: 6.55%); format: functional
DU-145 [9] = experiment: Induction of morphological changes in human DU145 cells assessed as nuclear fragmentation at 100 to 200 nM after 48 hrs by DAPI staining based fluorescence microscopic method; format: functional, cell-based
DU-145 [10] = experiment: Induction of morphological changes in human DU145 cells assessed as membrane blebbing after 48 hrs by acridine orange/ethidium bromide staining based fluorescence microscopic method; format: functional, cell-based
DU-145 [11] = experiment: Antiproliferative activity against human DU145 cells after 48 hrs by MTT assay; format: functional, cell-based; settings: DU-145, 48 h
DU-145 [12] = experiment: Cell cycle arrest in human DU145 cells assessed as accumulation at S phase at 400 nM after 24 hrs by propidium iodide staining based flow cytometry (reference value: 14.8%); format: functional
DU-145 [13] = experiment: Induction of apoptosis in human DU145 cells assessed as necrotic cells at 200 nM after 24 hrs by Annexin V-FITC/propidium iodide staining based flow cytometry (reference value: 1.82%); format: functional
PC-3 = experiment: Antiproliferative activity against human PC3 cells after 48 hrs by MTT assay; format: functional, cell-based; settings: PC-3, 48 h
DU-145 [14] = experiment: Induction of intracellular mitochondrial superoxide generation in human DU145 cells after 48 hrs by MitoSOX staining based fluorescence microscopic method; format: functional, cell-based
HCT-15 = experiment: Antiproliferative activity against human HCT15 cells after 48 hrs by MTT assay; format: functional, cell-based; settings: HCT-15, 48 h
DU-145 [15] = experiment: Induction of morphological changes in human DU145 cells assessed as apoptotic body formation after 48 hrs by acridine orange/ethidium bromide staining based fluorescence microscopic method; format: functional, cell-based
DU-145 [16] = experiment: Induction of apoptosis in human DU145 cells assessed as early apoptotic cells at 200 nM after 24 hrs by Annexin V-FITC/propidium iodide staining based flow cytometry (reference value: 5.92%); format: functional
DU-145 [17] = experiment: Induction of apoptosis in human DU145 cells assessed as live cells at 400 nM after 24 hrs by Annexin V-FITC/propidium iodide staining based flow cytometry (reference value: 85.71%); format: functional
DU-145 [18] = experiment: Induction of apoptosis in human DU145 cells assessed as late apoptotic cells at 400 nM after 24 hrs by Annexin V-FITC/propidium iodide staining based flow cytometry (reference value: 6.55%); format: functional
DU-145 [19] = experiment: Induction of morphological changes in human DU145 cells assessed as cell shrinkage after 48 hrs by acridine orange/ethidium bromide staining based fluorescence microscopic method; format: functional
DU-145 [20] = experiment: Induction of mitochondrial membrane potential loss in human DU145 cells assessed as depolarized cell population at 200 nM after 24 hrs by JC-1 staining based flow cytometry (reference value: 22.28%); format: functional
DU-145 [21] = experiment: Cell cycle arrest in human DU145 cells assessed as accumulation at G2/M phase at 400 nM after 24 hrs by propidium iodide staining based flow cytometry (reference value: 25.88%); format: functional
DU-145 [22] = experiment: Cell cycle arrest in human DU145 cells assessed as accumulation at G0/G1 phase at 100 nM after 24 hrs by propidium iodide staining based flow cytometry (reference value: 63.77%); format: functional
DU-145 [23] = experiment: Cell cycle arrest in human DU145 cells assessed as accumulation at G0/G1 phase at 400 nM after 24 hrs by propidium iodide staining based flow cytometry (reference value: 63.77%); format: functional
DU-145 [24] = experiment: Cell cycle arrest in human DU145 cells assessed as accumulation at G2/M phase at 100 nM after 24 hrs by propidium iodide staining based flow cytometry (reference value: 25.88%); format: functional
DU-145 [25] = experiment: Induction of apoptosis in human DU145 cells assessed as necrotic cells at 400 nM after 24 hrs by Annexin V-FITC/propidium iodide staining based flow cytometry (reference value: 1.82%); format: functional
DU-145 [26] = experiment: Cell cycle arrest in human DU145 cells assessed as accumulation at S phase at 100 nM after 24 hrs by propidium iodide staining based flow cytometry (reference value: 14.8%); format: functional
DU-145 [27] = experiment: Cell cycle arrest in human DU145 cells assessed as accumulation at subG1 phase at 400 nM after 24 hrs by propidium iodide staining based flow cytometry (reference value: 0.43%); format: functional
DU-145 [28] = experiment: Antimigratory activity against human DU145 cells assessed as inhibition of migration to scratch area after 24 hrs by phase contrast microscopic method; format: functional, cell-based
DU-145 [29] = experiment: Induction of morphological changes in human DU145 cells assessed as nuclear condensation at 100 to 200 nM after 48 hrs by DAPI staining based fluorescence microscopic method; format: functional, cell-based
DU-145 [30] = experiment: Induction of mitochondrial membrane potential loss in human DU145 cells assessed as intact membrane cell population at 400 nM after 24 hrs by JC-1 staining based flow cytometry (reference value: 77.24%); format: functional
DU-145 [31] = experiment: Induction of mitochondrial membrane potential loss in human DU145 cells after 24 hrs by JC-1 staining based flow cytometry; format: functional, cell-based
DU-145 [32] = experiment: Induction of apoptosis in human DU145 cells after 24 hrs by Annexin V-FITC/propidium iodide staining based flow cytometry; format: functional, cell-based
DU-145 [33] = experiment: Antimigratory activity against human DU145 cells assessed as inhibition of migration to scratch area at 400 nM after 24 hrs by phase contrast microscopic method relative to control; format: functional; settings: DU-145, 24 h
A549 = experiment: Antiproliferative activity against human A549 cells after 48 hrs by MTT assay; format: functional, cell-based; settings: A549, 48 h
DU-145 [34] = experiment: Cell cycle arrest in human DU145 cells assessed as accumulation at S phase at 200 nM after 24 hrs by propidium iodide staining based flow cytometry (reference value: 14.8%); format: functional
Sus scrofa = species: Sus scrofa; experiment: Inhibition of porcine brain tubulin polymerization at 5 uM measured for 1 hr by fluorescence assay relative to control
DU-145 [35] = experiment: Cell cycle arrest in human DU145 cells assessed as accumulation at subG1 phase at 200 nM after 24 hrs by propidium iodide staining based flow cytometry (reference value: 0.43%); format: functional
RWPE-1 = experiment: Cytotoxicity against human RWPE1 cells assessed as reduction in cell viability after 48 hrs by MTT assay; format: cell-based; settings: RWPE-1, 48 h
DU-145 [36] = experiment: Induction of apoptosis in human DU145 cells assessed as live cells at 200 nM after 24 hrs by Annexin V-FITC/propidium iodide staining based flow cytometry (reference value: 85.71%); format: functional
DU-145 [37] = experiment: Antimigratory activity against human DU145 cells assessed as inhibition of migration to scratch area at 200 nM after 24 hrs by phase contrast microscopic method relative to control; format: functional; settings: DU-145, 24 h
DU-145 [38] = experiment: Cell cycle arrest in human DU145 cells assessed as accumulation at subG1 phase at 100 nM after 24 hrs by propidium iodide staining based flow cytometry (reference value: 0.43%); format: functional

In the case of COc1ccc2sc(NC(=O)Cn3cc(C(=O)C(=O)Nc4ccccc4)c4ccccc43)nc2c1, the Activity (DU-145 [1]) is reported as 34.07%, the Activity (DU-145 [2]) is reported as “Dose-dependent effect” and the Activity (DU-145 [3]) is reported as 42.39%. For the same molecule, the Activity (DU-145 [4]) was 16.84%, the inhibition at 0.1 µM (DU-145 [5]) was 74.8% and the Activity (DU-145 [6]) was 51.89%. The Activity (DU-145 [7]) was 64.65%, the Activity (DU-145 [8]) was 5.81% and the Activity (DU-145 [9]) was “Active”. For the same molecule, the Activity (DU-145 [10]) was “Dose-dependent effect”, the IC50 (DU-145 [11]) was 0.093 µM and the Activity (DU-145 [12]) was 5.51%. The Activity (DU-145 [13]) was 3.58%, the IC50 (PC-3) was 0.361 µM and the Activity (DU-145 [14]) was “Dose-dependent effect”. The IC50 (HCT-15) was 0.18 µM, the Activity (DU-145 [15]) was “Dose-dependent effect” and the Activity (DU-145 [16]) was 5.89%. The Activity (DU-145 [17]) was 45.47%, the Activity (DU-145 [18]) was 33.63% and the Activity (DU-145 [19]) was “Dose-dependent effect”. It also gave an Activity (DU-145 [20]) of 57.05%, an Activity (DU-145 [21]) of 50.9% and an Activity (DU-145 [22]) of 47.69%. For the same molecule, the Activity (DU-145 [23]) was 16.32%, the Activity (DU-145 [24]) was 30.15% and the Activity (DU-145 [25]) was 4.06%. The Activity (DU-145 [26]) was 5.8%, the Activity (DU-145 [27]) was 26.89% and the inhibition (DU-145 [28]) was “Dose-dependent effect”. For the same molecule, the Activity (DU-145 [29]) was “Active”, the Activity (DU-145 [30]) was 34.21% and the Activity (DU-145 [31]) was “Dose-dependent effect”. For the same molecule, the Activity (DU-145 [32]) was “Dose-dependent effect”, the inhibition at 0.4 µM (DU-145 [33]) was 34.8% and the IC50 (A549) was 2.1 µM. It also gave an Activity (DU-145 [34]) of 8.26%, an inhibition (Sus scrofa) of 68.5% and an Activity (DU-145 [35]) of 5.88%. It also gave an IC50 (RWPE-1) of 0.71 µM, an Activity (DU-145 [36]) of 84.72% and an inhibition at 0.2 µM (DU-145 [37]) of 44%. For the same molecule, the Activity (DU-145 [38]) was 17.37%.

O=C(Cn1cc(C(=O)C(=O)Nc2ccccc2)c2ccccc21)Nc1nc(-c2ccccc2)cs1 gave an IC50 (DU-145 [11]) of 34.3 µM, an IC50 (PC-3) of over 50 µM and an IC50 (HCT-15) of over 50 µM. It also gave an IC50 (A549) of over 50 µM.

With O=C(Cn1cc(C(=O)C(=O)Nc2ccccc2)c2cc(Br)ccc21)Nc1nccs1 the IC50 (DU-145 [11]) was 25.5 µM, the IC50 (PC-3) was over 50 µM and the IC50 (HCT-15) was over 50 µM. For the same molecule, the IC50 (A549) was 43.7 µM.

Molecule COc1cc([C@@H]2c3cc4c(cc3[C@H](O)[C@H]3COC(=O)[C@H]23)OCO4)cc(OC)c1OC has an inhibition (Sus scrofa) of 78%.

Work on COc1ccc2sc(NC(=O)Cn3cc(C(=O)C(=O)Nc4ccccc4)c4cc(Br)ccc43)nc2c1 yielded an IC50 (DU-145 [11]) of 5.6 µM, an IC50 (PC-3) of 13.6 µM and an IC50 (HCT-15) of 12.5 µM. For the same molecule, the IC50 (A549) was over 50 µM and the inhibition (Sus scrofa) was 23.3%.

O=C(Cn1cc(C(=O)C(=O)N2CCCCC2)c2ccccc21)Nc1nccs1 was tested, and the IC50 (DU-145 [11]) was over 50 µM, the IC50 (PC-3) was over 50 µM and the IC50 (HCT-15) was over 50 µM. The IC50 (A549) was over 50 µM.

For O=C(CCn1cc(C(=O)C(=O)N2CCCCC2)c2ccccc21)Nc1nc(-c2ccccc2)cs1, the IC50 (DU-145 [11]) was over 50 µM, the IC50 (PC-3) was over 50 µM and the IC50 (HCT-15) was over 50 µM. For the same molecule, the IC50 (A549) was over 50 µM.

COc1ccc2sc(NC(=O)CCn3cc(C(=O)C(=O)N4CCCCC4)c4ccccc43)nc2c1 was tested, and the IC50 (DU-145 [11]) was 12.3 µM, the IC50 (PC-3) was 15.3 µM and the IC50 (HCT-15) was over 50 µM. The IC50 (A549) was over 50 µM.

Molecule Cc1ccc(-c2csc(NC(=O)CCn3cc(C(=O)C(=O)N4CCCCC4)c4ccccc43)n2)cc1 has an IC50 (DU-145 [11]) of over 50 µM, an IC50 (PC-3) of over 50 µM and an IC50 (HCT-15) of over 50 µM. It also gave an IC50 (A549) of over 50 µM.

O=C(Cn1cc(C(=O)C(=O)Nc2ccccc2)c2ccccc21)Nc1nccs1 showed an IC50 (DU-145 [11]) of 5.15 µM, an IC50 (PC-3) of over 50 µM and an IC50 (HCT-15) of over 50 µM. It also gave an IC50 (A549) of 20.9 µM and an inhibition (Sus scrofa) of 23.5%.
